Measured values as given in ChEMBL document CHEMBL3877294, “Discovery of Ruzasvir (MK-8408): A Potent, Pan-Genotype HCV NS5A Inhibitor with Optimized Activity against Common Resistance-Associated Polymorphisms” (J Med Chem, 2017).

Tests used:
Format in all cases: cell-based
[1] = tested on: Huh-7; test: Inhibition of HCV genotype-1a NS5A infected in human HuH7 cells by luciferase reporter gene assay; conditions: Hepatitis C virus subtype 1a
[2] = tested on: Huh-7; test: Inhibition of HCV genotype-2b NS5A harboring methionine at position 31 infected in human HuH7 cells by luciferase reporter gene assay; conditions: Hepatitis C virus subtype 2b
[3] = tested on: Nonstructural protein 5A (Hepatitis C virus), Q5L478 [UNDEFINED MUTATION]; test: Inhibition of HCV genotype-1a NS5A L31V mutant infected in human HuH7 cells by luciferase reporter gene assay; conditions: Hepatitis C virus subtype 1a; Huh-7
[4] = tested on: T1, Nonstructural protein 5A (Hepatitis C virus), Q5L478 [Y93H]; test: Inhibition of HCV genotype-1a NS5A Y93H mutant infected in human HuH7 cells by luciferase reporter gene assay; conditions: Hepatitis C virus subtype 1a; Huh-7
T1 sequence (whole entry): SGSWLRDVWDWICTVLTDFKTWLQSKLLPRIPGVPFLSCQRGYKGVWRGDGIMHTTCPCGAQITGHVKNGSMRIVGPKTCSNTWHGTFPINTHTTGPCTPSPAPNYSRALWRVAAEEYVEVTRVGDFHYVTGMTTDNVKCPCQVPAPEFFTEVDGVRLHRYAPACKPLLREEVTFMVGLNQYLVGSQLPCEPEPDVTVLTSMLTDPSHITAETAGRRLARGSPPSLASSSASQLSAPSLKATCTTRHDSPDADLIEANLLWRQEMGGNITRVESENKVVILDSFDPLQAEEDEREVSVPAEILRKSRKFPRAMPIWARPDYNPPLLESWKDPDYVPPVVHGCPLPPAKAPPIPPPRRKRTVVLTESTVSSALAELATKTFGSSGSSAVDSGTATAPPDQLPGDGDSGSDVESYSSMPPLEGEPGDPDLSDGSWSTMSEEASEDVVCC

[5] = tested on: Huh-7; test: Inhibition of HCV genotype-4a NS5A infected in human HuH7 cells by luciferase reporter gene assay; conditions: Hepatitis C virus subtype 4a
[6] = tested on: Huh-7; test: Inhibition of HCV genotype-3a NS5A infected in human HuH7 cells by luciferase reporter gene assay; conditions: Hepatitis C virus subtype 3a

| Structure (SMILES) | EC90 [1] [pM] | EC90 [2] [pM] | EC90 [3] [pM] | EC90 [4] [pM] | EC90 [5] [pM] | EC90 [6] [pM] |
| --- | --- | --- | --- | --- | --- | --- |
| COC(=O)N[C@H](C(=O)N1CCC[C@H]1c1ncc(-c2cc(F)c3c(c2)OC(c2sc(C(C)C)nc2C)n2c-3cc3cc(-c4cnc([C@@H]5CCCN5C(=O)[C@@H](NC(=O)OC)C(C)C)[nH]4)ccc32)[nH]1)C(C)C (stereo partly specified) | 4 | > 1700 | 360 | 12500 | 9 | 34 |
| COC(=O)N[C@H](C(=O)N1CCC[C@H]1c1ncc(-c2cc(F)c3c(c2)OC(c2nc(C4CC4)cs2)n2c-3cc3cc(-c4cnc([C@@H]5CCCN5C(=O)[C@@H](NC(=O)OC)C(C)C)[nH]4)ccc32)[nH]1)C(C)C (stereo partly specified) | 2 | 4600 | – | 2600 | – | 73 |
| CCCc1ccc(C2Oc3cc(-c4cnc([C@@H]5CCCN5C(=O)[C@@H](NC(=O)OC)C(C)C)[nH]4)cc(F)c3-c3cc4cc(-c5cnc([C@@H]6CCCN6C(=O)[C@@H](NC(=O)OC)C(C)C)[nH]5)ccc4n32)s1 (stereo partly specified) | 5 | 440 | 13 | 69 | 5 | 9 |
| COC(=O)N[C@H](C(=O)N1CCC[C@H]1c1ncc(-c2cc(F)c3c(c2)OC(c2cc4c(s2)CCC4)n2c-3cc3cc(-c4cnc([C@@H]5C[C@H]6C[C@H]6N5C(=O)[C@@H](NC(=O)OC)C(C)C)[nH]4)ccc32)[nH]1)C(C)C (stereo partly specified) | 6 | 670 | 15 | 200 | 5 | 12 |
| COC(=O)N[C@H](C(=O)N1CCC[C@H]1c1ncc(-c2cc(F)c3c(c2)OC(c2ccc(C(F)(F)F)s2)n2c-3cc3cc(-c4cnc([C@@H]5CCCN5C(=O)[C@@H](NC(=O)OC)C(C)C)[nH]4)ccc32)[nH]1)C(C)C (stereo partly specified) | 3 | 310 | 97 | 310 | 3 | 7 |
| COC(=O)N[C@H](C(=O)N1CCC[C@H]1c1ncc(-c2cc(F)c3c(c2)OC(c2csc(C4CC4)c2)n2c-3cc3cc(-c4cnc([C@@H]5CCCN5C(=O)[C@@H](NC(=O)OC)C(C)C)[nH]4)ccc32)[nH]1)C(C)C (stereo partly specified) | 2 | 880 | 60 | 260 | 3 | 7 |
| COC(=O)N[C@H](C(=O)N1CCC[C@H]1c1ncc(-c2cc(F)c3c(c2)OC(c2cnc(C(F)F)s2)n2c-3cc3cc(-c4cnc([C@@H]5CCCN5C(=O)[C@@H](NC(=O)OC)C(C)C)[nH]4)ccc32)[nH]1)C(C)C (stereo partly specified) | 2 | 69 | 3 | 56 | 2 | 4 |
| COC(=O)N[C@H](C(=O)N1CCC[C@H]1c1ncc(-c2cc(F)c3c(c2)OC(c2cncs2)n2c-3cc3cc(-c4cnc([C@@H]5CCCN5C(=O)[C@@H](NC(=O)OC)C(C)C)[nH]4)ccc32)[nH]1)C(C)C (stereo partly specified) | 6 | 2470 | – | 1000 | – | 79 |
| COC(=O)N[C@H](C(=O)N1CCC[C@H]1c1ncc(-c2cc(F)c3c(c2)OC(c2cc4c(s2)CCC4)n2c-3cc3cc(-c4cnc([C@@H]5CCCN5C(=O)[C@@H](NC(=O)OC)C(C)C)[nH]4)ccc32)[nH]1)C(C)C (stereo partly specified) | 3 | 240 | 3 | 260 | 5 | 7 |
| COC(=O)N[C@H](C(=O)N1CCC[C@H]1c1ncc(-c2cc(F)c3c(c2)OC(c2ccc(CC(F)(F)F)s2)n2c-3cc3cc(-c4cnc([C@@H]5CCCN5C(=O)[C@@H](NC(=O)OC)C(C)C)[nH]4)ccc32)[nH]1)C(C)C (stereo partly specified) | 1 | 650 | 22 | 100 | 4 | 7 |
| COC(=O)N[C@H](C(=O)N1CCC[C@H]1c1ncc(-c2cc(F)c3c(c2)OC(c2ccc(CC4CC4)s2)n2c-3cc3cc(-c4cnc([C@@H]5CCCN5C(=O)[C@@H](NC(=O)OC)C(C)C)[nH]4)ccc32)[nH]1)C(C)C (stereo partly specified) | 3 | – | 11 | 180 | 3 | 4 |
| COC(=O)N[C@H](C(=O)N1CCC[C@H]1c1ncc(-c2cc(F)c3c(c2)OC(c2ncc(C4CC4)s2)n2c-3cc3cc(-c4cnc([C@@H]5CCCN5C(=O)[C@@H](NC(=O)OC)C(C)C)[nH]4)ccc32)[nH]1)C(C)C (stereo partly specified) | 5 | 1630 | 17 | 1000 | – | – |
| COC(=O)N[C@H](C(=O)N1CCC[C@H]1c1ncc(-c2cc(F)c3c(c2)OC(c2ccsc2)n2c-3cc3cc(-c4cnc([C@@H]5CCCN5C(=O)[C@@H](NC(=O)OC)C(C)C)[nH]4)ccc32)[nH]1)C(C)C (stereo partly specified) | 2 | 3700 | 130 | 590 | 10 | 13 |
| COC(=O)N[C@H](C(=O)N1CCC[C@H]1c1ncc(-c2cc(F)c3c(c2)OC(c2cc(C4CC4)cs2)n2c-3cc3cc(-c4cnc([C@@H]5CCCN5C(=O)[C@@H](NC(=O)OC)C(C)C)[nH]4)ccc32)[nH]1)C(C)C (stereo partly specified) | < 2 | 1600 | 28 | 1740 | – | 8 |
| COC(=O)N[C@H](C(=O)N1CCC[C@H]1c1ncc(-c2cc(F)c3c(c2)OC(c2ccc(C(=O)N(C)C)s2)n2c-3cc3cc(-c4cnc([C@@H]5CCCN5C(=O)[C@@H](NC(=O)OC)C(C)C)[nH]4)ccc32)[nH]1)C(C)C (stereo partly specified) | 14 | 450 | 35 | 470 | 24 | 120 |
| COC(=O)N[C@H](C(=O)N1CCC[C@H]1c1ncc(-c2cc(F)c3c(c2)OC(c2ccc(C4CC4)s2)n2c-3cc3cc(-c4cnc([C@@H]5C[C@H]6C[C@H]6N5C(=O)[C@@H](NC(=O)OC)C(C)C)[nH]4)ccc32)[nH]1)C(C)C (stereo partly specified) | 4 | 300 | 12 | 30 | 5 | 7 |
| COCc1ncc(C2Oc3cc(-c4cnc([C@@H]5CCCN5C(=O)[C@@H](NC(=O)OC)C(C)C)[nH]4)cc(F)c3-c3cc4cc(-c5cnc([C@@H]6CCCN6C(=O)[C@@H](NC(=O)OC)C(C)C)[nH]5)ccc4n32)s1 (stereo partly specified) | 2 | 120 | 17 | 40 | 3 | 7 |
| COC(=O)N[C@H](C(=O)N1CCC[C@H]1c1ncc(-c2cc(F)c3c(c2)OC(c2cc4c(s2)CCCC4)n2c-3cc3cc(-c4cnc([C@@H]5CCCN5C(=O)[C@@H](NC(=O)OC)C(C)C)[nH]4)ccc32)[nH]1)C(C)C (stereo partly specified) | 5 | 610 | 27 | 310 | 8 | 20 |
| CCc1ncc(C2Oc3cc(-c4cnc([C@@H]5CCCN5C(=O)[C@@H](NC(=O)OC)C(C)C)[nH]4)cc(F)c3-c3cc4cc(-c5cnc([C@@H]6C[C@H]7C[C@H]7N6C(=O)[C@@H](NC(=O)OC)C(C)C)[nH]5)ccc4n32)s1 (stereo partly specified) | 5 | 210 | 22 | 40 | 8 | 12 |
| COC(=O)N[C@H](C(=O)N1CCC[C@H]1c1ncc(-c2cc(F)c3c(c2)OC(c2cnco2)n2c-3cc3cc(-c4cnc([C@@H]5CCCN5C(=O)[C@@H](NC(=O)OC)C(C)C)[nH]4)ccc32)[nH]1)C(C)C (stereo partly specified) | 60 | 14100 | – | 8500 | – | 250 |
| COC(=O)N[C@H](C(=O)N1CCC[C@H]1c1ncc(-c2cc(F)c3c(c2)OC(c2ccc(C(C)C)s2)n2c-3cc3cc(-c4cnc([C@@H]5CCCN5C(=O)[C@@H](NC(=O)OC)C(C)C)[nH]4)ccc32)[nH]1)C(C)C (stereo partly specified) | 2 | 520 | 10 | 130 | 3 | 1 |
| CCCc1ncc(C2Oc3cc(-c4cnc([C@@H]5CCCN5C(=O)[C@@H](NC(=O)OC)C(C)C)[nH]4)cc(F)c3-c3cc4cc(-c5cnc([C@@H]6C[C@H]7C[C@H]7N6C(=O)[C@@H](NC(=O)OC)C(C)C)[nH]5)ccc4n32)s1 (stereo partly specified) | 5 | 140 | 13 | 21 | 12 | 9 |
| COC(=O)N[C@H](C(=O)N1CCC[C@H]1c1ncc(-c2ccc3c(c2)cc2n3C(c3cc4ccccc4s3)Oc3cc(-c4cnc([C@@H]5C[C@@H](F)CN5C(=O)[C@@H](NC(=O)OC)C(C)C)[nH]4)ccc3-2)[nH]1)C(C)C (stereo partly specified) | 10 | 3400 | 530 | 1100 | – | 190 |
| CCc1nnc(C2Oc3cc(-c4cnc([C@@H]5CCCN5C(=O)[C@@H](NC(=O)OC)C(C)C)[nH]4)cc(F)c3-c3cc4cc(-c5cnc([C@@H]6CCCN6C(=O)[C@@H](NC(=O)OC)C(C)C)[nH]5)ccc4n32)s1 (stereo partly specified) | 16 | > 1700 | – | 7400 | – | 180 |
| COC(=O)N[C@H](C(=O)N1CCC[C@H]1c1ncc(-c2cc(F)c3c(c2)OC(c2sc(C4CC4)cc2F)n2c-3cc3cc(-c4cnc([C@@H]5CCCN5C(=O)[C@@H](NC(=O)OC)C(C)C)[nH]4)ccc32)[nH]1)C(C)C (stereo partly specified) | 2 | 680 | – | 740 | 3 | 8 |
